Results reported in patent publication US10583109B2, “Use of silver(I) complexes as anticancer agents” (University of Johannesburg, priority 2012, dated 2020).

How the values were obtained:
Type in all cases: cell-based
[1] = test system: SNO-oesophageal cancer cells; conditions: for cells' viability: 10 µM
Description: The SNO-oesophageal cancer cells were cultured in Dulbecco's modified Eagles medium (DMEM) containing 10% Foetal bovine serum (FBS), 0.8% Penicillin/Streptomycin/Fungizone and 0.2% Gentamycin. The SNO-oesophageal cancer cells were subcultured every 48 hours and incubated at 37° C. under a 5% CO2 humidified atmosphere. After 48 hours the cells were trypsinized and plated (6×10^5 cells) in 3.5 cm culture dishes and left to cultivate for 24 hours.
MCF-7 breast cancer cells, in terms of a first study, and SNO-oesophageal cancer cells, in terms of a second study, were treated with 10 μM silverthiocyanide complexes (1)-(5), as well as their ligands (Ligand-1 to Ligand-5) over a 24 hour incubation period. These complexes were dissolved in 0.1% Dimethyl sulfoxide (DMSO). The DMSO alone (vehicle control) decreased the viability with approximately 2.2%, signifying its minimal influence in cancer cell growth. For comparative purposes, 100 μM Cisplatin (CDDP) and 25% H2O2 was included which respectively serves as the apoptotic and necrotic controls. Cisplatin was prepared in 0.9% NaCl, whereas H2O2 was prepared in the supplemented DMEM media right before treatment. An untreated negative control (UT) was exposed to similar conditions as the treated cells and monitored during the experimental study.
An AlamarBlue® Viability® (Serotec, UK) assay was performed after a 24 hour treatment with complexes (1)-(5) and their ligands (Ligand-1 to Ligand-5, respectively) to evaluate the cellular effect the instant complexes (and their ligands) may have on the cancer cells. AlamarBlue® dye (10%) was incubated with trypsinized cells over a 2 hour period before the fluorescence was measured with a Synergy HT Multi-Detection Microplate reader (BioTek, Winooski, Vt.) at wavelengths of 530 nm and (excitation) and 590 nm (emission). This fluorescent based assay in particular involves the metabolic oxidation-reduction reaction of resazurin to a reduced resorufin product that is directly proportional to the amount of viable cells.
The percentage cellular viability of differentially treated SNO-oesophageal cells was determined using an AlamarBlue® assay, as depicted in FIG. 7. Different controls (grey) were included: untreated, 0.1% DMSO solvent and apoptotic control (100 μM Cisplatin) as well as the corresponding ligands (10 μM) of complexes (1)-(5). Cells were treated with silver(I) thiocyanate phosphine complexes (1)-(5) at a concentration of 10 μM. The percentages were calculated with respect to the control and error bars were constructed on the basis of Standard Error of the Mean (SEM) where n=9 except for the ligand of compound 4 (n=8). The P-values (*P<0.001 and **P<0.0001) were determined with the Student's T-test to evaluate the significant difference.
The cells were thereafter treated with complexes (6)-(9) at a concentration of 10 μM prepared in 0.1% DMSO. Treatment with either 25% H2O2 or 100 μM CDDP served as controls for necrosis and apoptosis respectively. The CDDP was prepared in 0.9% NaCl while the H2O2 was diluted with supplemented DMEM prior to treatment.
A suspension (100 μl) of the differentially treated cells was added in triplicate to a microtiter plate. In the dark, AlamarBlue® dye (10 μl) was added to each well containing a sample, followed by a 2 hour incubation in a 5% CO2 incubator at 37° C. The fluorescence was read on a Synergy HT Multi-Detection Microplate reader at a wavelength of 530 nm and (excitation) and 590 nm (emission). In terms of this study, the apoptotic control CDDP (100 μM) was included. Error bars represent the standard error of the mean (SEM) where n=9. The Student's T-test was used to determine the significant difference of the treatments with respect to DMSO (P*<0.05 and P**<0.001). The silver(I) nitrate phosphine complexes under evaluation decreased the cancer cell viability to a large extent compared to DMSO except complex (9).
SNO-oesophageal cancer cells were a gift from the University of Pretoria, RSA. […]

[2] = test system: SNO-oesophageal cancer cells; assay: Morphological features of SNO-oesophageal cancer cells by inverse light microscopy; conditions: 10 μM, 24 hours of treatment
Description: Morphological studies were done by means of an Axiovert 25 inverted microscope (Carl Zeiss, Göttingen, Germany) with Axio Vision 3.1 software (Carl Zeiss, Göttingen, Germany) using an magnification of 100×.
After 24 hours of treatment with complexes (1)-(5) including their ligands the cells were examined under said Axiovert 25 inverted light microscope. This was done to determine how the complexes of the present invention influence morphology which was compared to 100 μM Cisplatin (apoptotic control) and 15% H2O2 (necrotic control).
Light microscope images indicating the morphology of the differentially treated SNO-oesophageal cancer cells is shown in FIG. 8. An untreated control (a) including 100 μM Cisplatin (b), an apoptotic control and 15% H2O2 (c), and a necrotic control was included. Cells were treated with 10 μM silver(I) thiocyanate phosphine complexes (1)-(5) as well as their separate ligands (Ligand-1 to Ligand-5, respectively) (FIGS. 8d to 8m). Black arrows represent signs of apoptosis, while the white arrows represent signs of necrosis.
An Axiovert 25 inverted microscope was used to examine if these complexes affect the morphological features of the malignant cells in any other way. This was done at a magnification of 100× with the use of Axio Version 3.1 software (Carl Zeiss, Gottingen, Germany).
Morphological studies where done after 24 hours of treatment to determine how these compounds influence/change specific features of the malignant SNO-oesophageal cancer cells, compared to the untreated (UC) and 1% DMSO vehicle control. The treated cancer cells including their controls were examined under an Axiovert 25 inverted light microscope (Carl Zeiss, Göttingen, Germany) with Axio Vision 3.1 software (Carl Zeiss, Göttingen, Germany) using a 100× magnification. In FIG. 19, the morphology of the different controls including Ligand-10 and complexes (10)-(12) are represented. To predict the targeting mechanisms of these compounds, the treated cells were compared to 100 μM Cisplatin (apoptotic control) and 25% H2O2 (necrotic control).

[3] = test system: SNO-oesophageal cancer cells; assay: Flow cytometric analysis (Annexin-V FITC / PI) of apoptosis and/or necrosis in SNO-oesophageal cancer cells; conditions: 10 μM, 24 hours of treatment
Description: To determine if either apoptosis or necrosis occurred, the cells were double labelled with Annexin-V FITC and Propidium Iodide (PI) by means of an Annexin-V FITC assay kit (Serotec, UK). This was done according to manufacturer's instructions with a few adjustments. Briefly, the cells (±3×10^5 cells/ml) were washed twice with cold phosphate buffered saline (PBS), followed by the addition of 100 μl 1× binding buffer. Two and a half microliters of Annexin-V along with 5 μl PI were added in the dark and was incubated for 15 minutes at room temperature. After incubation, 400 μl 1× binding buffer was added and cells were analysed using the FACSAria flow cytometer (BD Biosciences, San Jose, Calif.) with FACSDiva software (BD Biosciences, San Jose, Calif.) 492 nm (excitation) and 520 nm for Annexin and 488 nm and 575 nm(emission) for PI.
The cell membrane contains a negatively charged phosphatidylserine (PS) on the inner leaflet and is exposed when apoptosis or necrosis takes place. Annexin-V interacts with PS in both apoptotic and necrotic cells, making these cellular deaths undistinguishable. This is overcome by using PI as an alternative label that interacts with the exposed DNA of necrotic cells only, leading to the fluorescent detection of both these labels. Pie charts (FIG. 9) were constructed for all the controls (including Ligand-1 to Ligand-5) and the different silver(I) thiocyanate phosphine complexes (1)-(5).
Pie charts representing the four different flow cytometric quadrants of Annexin-V and […] to determine the mode of cellular death induced in differentially treated SNO-oesophageal cells are represented in FIG. 9. An untreated control (A), apoptotic control (B) and necrotic control (C) were included. Cells were treated with 10 μM of the different ligands including the silver(I) thiocyanate phosphine complexes (1)-(5). An average percentage was calculated for all segments where the SEM is n=3 for all treatments except for 15% H2O2 (n=2). The four segments represent the following: White segment—negative for FITC and PI, Light grey segment—positive for FITC but negative for PI, Dark grey segment—positive for PI but negative for FITC and Black segment—positive for both FITC and PI. Cells undergoing early apoptosis are represented by the light grey segment, while those of late apoptosis and primary necrosis are represented by the black segment. Necrotic cells are represented by the dark grey segment and intact viable cells are shown by the white segment.
Approximately 3×10^5 cells were washed with ice cold phosphate buffered saline solution (PBS). The cells were double labeled using an Annexin-V FITC assay kit adjusting the protocol. A 1× binding buffer (100 μl) was used to fix the cells. Annexin-V (2.5 μl) and Propidium Iodide (PI—5 μl) labels were added respectively followed by a 15 minute incubation, at room temperature, in the dark. After the incubation period, 400 μl of the 1× binding buffer was added, where counting of the cellular events was made using an FACSAria flow cytometer (BD Biosciences, San Jose, Calif.) with FACSDiva software (BD Biosciences, San Jose, Calif.). This technique in particular identifies whether predicted apoptotic cell death (or necrosis) was induced by these complexes.
As observed in FIG. 14, dot blots represent the mode of cellular death induced in the SNO-oesophageal cancer cells after 24 hours of treatment. FIG. 14(a): 0.1% DMSO, FIG. 14(b): 100 μM CDDP, FIG. 14(c): 25% H2O2, FIG. 14(d-i): complexes (6)-(9). An average percentage was calculated for all quadrants where the SEM is n=2 for all treatments. The four quadrants represent the following: Quadrant Q3 is negative for FITC and PI, Quadrant Q4 is positive for FITC but negative for PI, Quadrant Q1 is positive for PI but negative for FITC and Quadrant Q2 is positive for both FITC and PI. Cells undergoing early apoptosis are more likely to be found in Quadrant Q4 while those of late apoptosis and primary necrosis will be found in Quadrant Q2. […]

Molecule | signs of apoptosis (morphology) [2] | apoptotic cell death (flow cytometry, Q4 and Q2) [3] | other results
Cc1ccc(P(c2ccc(C)cc2)c2ccc(C)cc2)cc1 [Ligand-2, P(p-MeC6H4)3, reference compound] | minimal |  | cells' viability [1]: 86.4%
O=[N+]([O-])[O-].[Ag+].c1ccc(P(c2ccccc2)c2ccccc2)cc1 [complex (6), AgNO3(PPh3)] |  | 20% | 
O=[N+]1[O][Ag]([P+](c2ccccc2)(c2ccccc2)c2ccccc2)([P+](c2ccccc2)(c2ccccc2)c2ccccc2)[O]1 [complex (7), AgNO3(PPh3)2] |  | 30.6% | 
COc1ccc(P(c2ccc(OC)cc2)c2ccc(OC)cc2)cc1 [Ligand-5, P(p-MeOC6H4)3, reference compound] | minimal |  | cells' viability [1]: 80.7%
O=[N+]([O-])[O][Ag]([P+](c1ccccc1)(c1ccccc1)c1ccccc1)([P+](c1ccccc1)(c1ccccc1)c1ccccc1)[P+](c1ccccc1)(c1ccccc1)c1ccccc1 [complex (8), AgNO3(PPh3)3] |  | 24% | 
Clc1ccc(P(c2ccc(Cl)cc2)c2ccc(Cl)cc2)cc1 [Ligand-4, tris parachlorophenyl phosphine, reference compound] | minimal |  | 
Fc1ccc(P(c2ccc(F)cc2)c2ccc(F)cc2)cc1 [Ligand-3, P(4-FC6H4)3, reference compound] | no |  | 
c1ccc(P(c2ccccc2)c2ccccc2)cc1 [Ligand-1, triphenyl phosphine, reference compound] | minimal |  | 
[AgSCN{P(4-MeOC6H4)3}2]n [complex (5)] |  |  | percentage cellular viability / toxicity ([1]; 10 μM, 24 hour treatment, compared to the control): highly toxic; necrotic cell death (morphology) [2]: Necrotic cell death was also observed
